Measurements: ChEMBL document CHEMBL1131172 (J Med Chem, 1998)

What was measured:
[1] = target: T1, Bifunctional dihydrofolate reductase-thymidylate synthase (Toxoplasma gondii, UniProt Q07422)
T1 sequence (Q07422 whole entry): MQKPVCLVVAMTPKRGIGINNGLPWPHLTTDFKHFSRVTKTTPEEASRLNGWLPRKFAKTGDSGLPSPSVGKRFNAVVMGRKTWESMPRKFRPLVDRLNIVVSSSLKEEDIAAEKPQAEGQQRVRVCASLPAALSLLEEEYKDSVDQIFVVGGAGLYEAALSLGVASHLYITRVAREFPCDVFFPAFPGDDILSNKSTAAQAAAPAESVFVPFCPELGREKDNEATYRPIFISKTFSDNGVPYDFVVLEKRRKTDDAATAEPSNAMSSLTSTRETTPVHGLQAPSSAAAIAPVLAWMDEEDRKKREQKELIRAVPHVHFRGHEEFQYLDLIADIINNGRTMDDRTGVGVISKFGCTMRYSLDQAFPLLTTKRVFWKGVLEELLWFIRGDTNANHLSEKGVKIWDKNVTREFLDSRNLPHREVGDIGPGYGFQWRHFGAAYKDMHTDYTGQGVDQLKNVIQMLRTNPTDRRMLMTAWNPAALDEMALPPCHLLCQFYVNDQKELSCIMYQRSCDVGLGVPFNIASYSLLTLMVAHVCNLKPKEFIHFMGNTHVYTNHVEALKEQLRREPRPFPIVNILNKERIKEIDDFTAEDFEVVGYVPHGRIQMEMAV
Description: Inhibitory activity against dihydrofolate reductase (DHFR) from Toxoplasma gondii

[2] = target: T2, Dihydrofolate reductase (Pneumocystis carinii, UniProt P16184)
T2 sequence (P16184 whole entry): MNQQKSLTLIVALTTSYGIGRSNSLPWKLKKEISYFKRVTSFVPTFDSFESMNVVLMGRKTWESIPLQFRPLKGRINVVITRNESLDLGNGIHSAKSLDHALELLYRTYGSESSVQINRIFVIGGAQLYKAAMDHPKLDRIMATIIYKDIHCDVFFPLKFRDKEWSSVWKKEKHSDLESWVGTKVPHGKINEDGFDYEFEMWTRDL
Description: Inhibitory activity against dihydrofolate reductase (DHFR) from Pneumocystis carinii

[3] = target: T3, Dihydrofolate reductase (Rattus norvegicus, UniProt Q920D2)
T3 sequence (Q920D2 whole entry): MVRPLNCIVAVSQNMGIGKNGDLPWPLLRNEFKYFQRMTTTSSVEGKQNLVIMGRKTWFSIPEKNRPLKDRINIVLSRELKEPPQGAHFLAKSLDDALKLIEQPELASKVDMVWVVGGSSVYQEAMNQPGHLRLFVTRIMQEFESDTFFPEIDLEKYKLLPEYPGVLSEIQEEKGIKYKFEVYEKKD
Description: Inhibitory activity against dihydrofolate reductase (DHFR) from rat liver

Row | SMILES | IC50 [1] [µM] | IC50 [2] [µM] | IC50 [3] [µM]
1 | COc1ccc(Nc2ccc3nc(N)nc(N)c3n2)cc1 | 2.8 | 90.4 | 3.8
2 | COc1ccc(OC)c(Nc2ccc3nc(N)nc(N)c3n2)c1 | 0.73 |  | 3.6
